Source: US8192962B2, “Processes for detecting toxic substances” (Daikin Industries, Ltd., priority 2001, dated 2012)

System: Genes belonging to other category
Experiment: DNA chip mRNA expression in yeast, genes belonging to other category (Table 9)
Format: cell-based, Saccharomyces cerevisiae S288C
Procedure, shortened: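 S. cerevisiae S288C grown at 25° C in YPD were exposed in log phase for two hours to one toxic chemical at a growth-inhibiting, non-lethal concentration; untreated cells served as control. Poly(A) mRNA was reverse-transcribed with Cy3/Cy5-dUTP and hybridized to a whole-genome yeast DNA chip at 65° C for over 12 hours; values are fluorescence ratios versus untreated.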

manganese ethylenebis(dithiocarbamate) [(8)]
The level of expressed mRNA in the presence of chemical substance/The level of expressed mRNA in the absence of chemical substance (yeast gene YKL008C): 1.2
The level of expressed mRNA in the presence of chemical substance/The level of expressed mRNA in the absence of chemical substance (yeast gene YKL013C): 0.9
The level of expressed mRNA in the presence of chemical substance/The level of expressed mRNA in the absence of chemical substance (yeast gene YKL039W): 0.8
The level of expressed mRNA in the presence of chemical substance/The level of expressed mRNA in the absence of chemical substance (yeast gene YKL096W): 0.5
The level of expressed mRNA in the presence of chemical substance/The level of expressed mRNA in the absence of chemical substance (yeast gene YKL165C): 1.5
The level of expressed mRNA in the presence of chemical substance/The level of expressed mRNA in the absence of chemical substance (yeast gene YKL193C): 1.4
The level of expressed mRNA in the presence of chemical substance/The level of expressed mRNA in the absence of chemical substance (yeast gene YLR120C): 0.9
The level of expressed mRNA in the presence of chemical substance/The level of expressed mRNA in the absence of chemical substance (yeast gene YLR136C): 1.1
The level of expressed mRNA in the presence of chemical substance/The level of expressed mRNA in the absence of chemical substance (yeast gene YLR178C): 0.9
The level of expressed mRNA in the presence of chemical substance/The level of expressed mRNA in the absence of chemical substance (yeast gene YLR250W): 1.3
The level of expressed mRNA in the presence of chemical substance/The level of expressed mRNA in the absence of chemical substance (yeast gene YLR327C): 2.2
The level of expressed mRNA in the presence of chemical substance/The level of expressed mRNA in the absence of chemical substance (yeast gene YLR356W): 0.7
The level of expressed mRNA in the presence of chemical substance/The level of expressed mRNA in the absence of chemical substance (yeast gene YLR362W): 1.4
The level of expressed mRNA in the presence of chemical substance/The level of expressed mRNA in the absence of chemical substance (yeast gene YLR391W): 0.7
The level of expressed mRNA in the presence of chemical substance/The level of expressed mRNA in the absence of chemical substance (yeast gene YLR429W): 1.0
The level of expressed mRNA in the presence of chemical substance/The level of expressed mRNA in the absence of chemical substance (yeast gene YMR004W): 1.0
The level of expressed mRNA in the presence of chemical substance/The level of expressed mRNA in the absence of chemical substance (yeast gene YMR094W): 1.0
The level of expressed mRNA in the presence of chemical substance/The level of expressed mRNA in the absence of chemical substance (yeast gene YMR104C): 0.9
The level of expressed mRNA in the presence of chemical substance/The level of expressed mRNA in the absence of chemical substance (yeast gene YMR219W): 1.1
The level of expressed mRNA in the presence of chemical substance/The level of expressed mRNA in the absence of chemical substance (yeast gene YMR226C): 1.6
The level of expressed mRNA in the presence of chemical substance/The level of expressed mRNA in the absence of chemical substance (yeast gene YMR275C): 0.8
The level of expressed mRNA in the presence of chemical substance/The level of expressed mRNA in the absence of chemical substance (yeast gene YMR276W): 0.8
The level of expressed mRNA in the presence of chemical substance/The level of expressed mRNA in the absence of chemical substance (yeast gene YMR314W): 1.2
The level of expressed mRNA in the presence of chemical substance/The level of expressed mRNA in the absence of chemical substance (yeast gene YNL006W): 1.1
The level of expressed mRNA in the presence of chemical substance/The level of expressed mRNA in the absence of chemical substance (yeast gene YNL007C): 0.8
The level of expressed mRNA in the presence of chemical substance/The level of expressed mRNA in the absence of chemical substance (yeast gene YNL093W): 0.8
The level of expressed mRNA in the presence of chemical substance/The level of expressed mRNA in the absence of chemical substance (yeast gene YNL333W): 2.1
The level of expressed mRNA in the presence of chemical substance/The level of expressed mRNA in the absence of chemical substance (yeast gene YNR010W): 1.1
The level of expressed mRNA in the presence of chemical substance/The level of expressed mRNA in the absence of chemical substance (yeast gene YNR069C): 1.4
The level of expressed mRNA in the presence of chemical substance/The level of expressed mRNA in the absence of chemical substance (yeast gene YOL013C): 1.0
The level of expressed mRNA in the presence of chemical substance/The level of expressed mRNA in the absence of chemical substance (yeast gene YOL164W): 1.0
The level of expressed mRNA in the presence of chemical substance/The level of expressed mRNA in the absence of chemical substance (yeast gene YOR036W): 1.4
The level of expressed mRNA in the presence of chemical substance/The level of expressed mRNA in the absence of chemical substance (yeast gene YOR117W): 1.0
The level of expressed mRNA in the presence of chemical substance/The level of expressed mRNA in the absence of chemical substance (yeast gene YOR124C): 1.3
The level of expressed mRNA in the presence of chemical substance/The level of expressed mRNA in the absence of chemical substance (yeast gene YOR132W): 1.2
The level of expressed mRNA in the presence of chemical substance/The level of expressed mRNA in the absence of chemical substance (yeast gene YOR157C): 1.2
The level of expressed mRNA in the presence of chemical substance/The level of expressed mRNA in the absence of chemical substance (yeast gene YOR181W): 0.7
The level of expressed mRNA in the presence of chemical substance/The level of expressed mRNA in the absence of chemical substance (yeast gene YOR185C): 1.4
The level of expressed mRNA in the presence of chemical substance/The level of expressed mRNA in the absence of chemical substance (yeast gene YOR198C): 1.3
The level of expressed mRNA in the presence of chemical substance/The level of expressed mRNA in the absence of chemical substance (yeast gene YOR259C): 1.1
The level of expressed mRNA in the presence of chemical substance/The level of expressed mRNA in the absence of chemical substance (yeast gene YOR261C): 2.6
The level of expressed mRNA in the presence of chemical substance/The level of expressed mRNA in the absence of chemical substance (yeast gene YOR288C): 1.9
The level of expressed mRNA in the presence of chemical substance/The level of expressed mRNA in the absence of chemical substance (yeast gene YOR355W): 0.8
The level of expressed mRNA in the presence of chemical substance/The level of expressed mRNA in the absence of chemical substance (yeast gene YOR383C): 1.0
The level of expressed mRNA in the presence of chemical substance/The level of expressed mRNA in the absence of chemical substance (yeast gene YPL089C): 0.8
The level of expressed mRNA in the presence of chemical substance/The level of expressed mRNA in the absence of chemical substance (yeast gene YPL109C): 1.1
The level of expressed mRNA in the presence of chemical substance/The level of expressed mRNA in the absence of chemical substance (yeast gene YPL149W): 1.1
The level of expressed mRNA in the presence of chemical substance/The level of expressed mRNA in the absence of chemical substance (yeast gene YPL154C): 0.8
The level of expressed mRNA in the presence of chemical substance/The level of expressed mRNA in the absence of chemical substance (yeast gene YPR103W): 1.0
The level of expressed mRNA in the presence of chemical substance/The level of expressed mRNA in the absence of chemical substance (yeast gene YPR108W): 1.6
